# Measured values taken from patent publication US11339207B2, “Methods and compounds for the treatment or prevention of severe influenza” (priority 2016, dated 2022).
# Like-named read-outs stand apart in the source and are kept apart here.
# Columns and labels:
# [1] = test system: HSP27 phosphorylation in HUVEC cells; test: Western blotting of HSP27 phosphorylation in HUVEC cells after HBEC viral soup; format: cell-based, human; conditions: pre-incubation
# [2] = test system: HUVECs stimulated with HBEC viral soup; format: cell-based, human; conditions: for iMax IP10: maximal inhibition, HUVEC, HBEC viral soup, secreted IP10; for levels of IP10 at higher drug concentrations: endothelial cells (HUVECs) stimulated with 70% HBEC viral soup, FIG. 10
# [3] = test system: p38MAPK and HSP27 phosphorylation in A549 cells; test: Western blotting of p38MAPK and HSP27 phosphorylation in A549 cells after A549 viral soup; format: cell-based, human; conditions: FIG. 6
# [4] = test system: HSP27 phosphorylation in Peripheral Blood Mononuclear Cells (PBMCs); test: Western blotting of HSP27 phosphorylation in immune cells (PBMCs) after A549 viral soup; format: cell-based, human; conditions: pre-incubation, FIG. 8
# [5] = test system: PBMCs plus granulocytes stimulated with A549 viral soup; format: cell-based, human; conditions: immune cells, pre-incubation, FIG. 8
# influenza virus = conditions: 14% among controls, cited from earlier work
compound,measurement,setting,value
"CNC(=O)c1ccc(C)c(-n2c(C)cc(OCc3ccc(F)cc3F)c(Br)c2=O)c1 [PH797804, 3-[3-bromo-4-[(2,4-difluorophenyl)methoxy]-6-methyl-2-oxopyridin-1-yl]-N,4-dimethylbenzamide]",induction of HSP27 phosphorylation by HBEC viral soup,[1],dose dependently inhibit
same,iMax IP10,[2],88%
same,induction of HSP27 phosphorylation by A549 viral soup,[3],dose dependently inhibit
same,induction of p38MAPK phosphorylation by A549 viral soup,[3],dose dependently inhibit
same,induction of HSP27 phosphorylation by A549 viral soup,[4],dose dependently inhibit
same,A549 viral soup induced release of CXCL8,[5],significantly attenuate
same,A549 viral soup induced release of IL-1-β,[5],significantly attenuate
same,A549 viral soup induced release of IL-6,[5],significantly attenuate
same,A549 viral soup induced release of TNFα,[5],significantly attenuate
COc1cc(F)c(F)c(Nc2ccc(I)cc2F)c1NS(=O)(=O)C1(C[C@H](O)CO)CC1 [Refametinib],levels of IP10 at higher drug concentrations,[2],appeared to increase levels of IP10
"CC[C@H]1OC(=O)[C@H](C)[C@@H](O[C@H]2C[C@@](C)(OC)[C@@H](O)[C@H](C)O2)[C@H](C)[C@@H](O[C@@H]2O[C@H](C)C[C@H](N(C)C)[C@H]2O)[C@](C)(O)C[C@@H](C)C(=O)[C@H](C)[C@@H](O)[C@]1(C)O [EM, erythromycin]",survival rate of the virus-infected mice at Day 20 of infection,influenza virus; 1.0 mg/kg/d,42%
same,survival rate of the virus-infected mice at Day 20 of infection,influenza virus; 3.3 mg/kg/d,57%
Selumetinib,levels of IP10 at higher drug concentrations,[2],appeared to increase levels of IP10
"Cc1cc(F)ccc1-c1nc(NC(CO)CO)nc2c1ccc(=O)n2-c1c(F)cccc1F [Dilmapimod, 8-(2,6-difluorophenyl)-2-(1,3-dihydroxypropan-2-ylamino)-4-(4-fluoro-2-methylphenyl)pyrido[2,3-d]pyrimidin-7-one]",induction of HSP27 phosphorylation by HBEC viral soup,[1],dose dependently inhibit
same,induction of HSP27 phosphorylation by A549 viral soup,[3],dose dependently inhibit
same,induction of p38MAPK phosphorylation by A549 viral soup,[3],dose dependently inhibit
same,induction of HSP27 phosphorylation by A549 viral soup,[4],dose dependently inhibit
same,A549 viral soup induced release of CXCL8,[5],significantly attenuate
same,A549 viral soup induced release of IL-1-β,[5],significantly attenuate
same,A549 viral soup induced release of IL-6,[5],significantly attenuate
same,A549 viral soup induced release of TNFα,[5],significantly attenuate
Nc1ccc2ncnc(NCCc3ccc(Oc4ccccc4)cc3)c2c1 [QNZ (EVP4593)],iMax IP10,[2],72%
CC[C@H](C)C(=O)O[C@H]1C[C@H](O)C=C2C=C[C@H](C)[C@H](CC[C@@H](O)C[C@@H](O)CC(=O)O)[C@H]21 [Pravastatin],iMax IP10,[2],35%
